Laboratory results: PMC7281614, “Induction of Antibacterial Metabolites by Co-Cultivation of Two Red-Sea-Sponge-Associated Actinomycetes Micromonospora sp. UR56 and Actinokinespora sp. EG49” (Marine Drugs, 2020)
Read-outs that look alike come from different tables or passages of the source.

Experiments:
[1] = tested on: Escherichia coli ATCC25922; experiment: Antibacterial activity, growth inhibition in 96 well plates (OD600); format: cell-based
Protocol: (§1) The antibacterial activity of all isolated pure compounds (1–3, 9, and 10) was evaluated on Gram-positive pathogenic bacteria such as Bacillus subtilis (ATCC29212) and Staphylococcus aureus (ATCC9144 (and Gram-negative pathogenic bacteria such as Escherichia coli. (ATCC25922) and Pseudomonas aeruginosa (ATCC27853), as previously reported. The tests were carried out in 96 well flat polystyrene plates. First, 10 μL of each isolated compound (15 µM) was transferred to 80 μL of lysogeny broth followed by the addition of 10 μL of bacterial suspension at log phase, and then all inoculated plates were incubated overnight at 37 °C. […] The absorbance was observed after 20 h at OD600 in a Spectrostar Nano Microplate Reader (BMG LABTECH GmbH, Allmendgrun, Germany). The positive control was pathogenic bacteria plus distilled water, while the negative control was growth medium plus distilled water.

[2] = tested on: Pseudomonas aeruginosa ATCC27853; experiment: as above; format: cell-based; conditions: NA: no activity; for inhibition at 15 µM: Pseudomonas aeruginosa; for Growth inhibition % Pseudomonas aeruginosa: at 15 µM, 15 µM
Protocol: as §1

[3] = tested on: Bacillus subtilis ATCC29212; experiment: as above; format: cell-based
Protocol: as §1

[4] = tested on: Staphylococcus aureus ATCC9144; experiment: as above; format: cell-based; conditions: NA: no activity; for inhibition at 15 µM: Staphylococcus aureus, ATCC9144, at 15 µM; for Growth inhibition % Staphylococcus aureus: at 15 µM, 15 µM
Protocol: as §1

[5] = tested on: S. aureus; experiment: Antibiofilm activity, crystal violet staining; format: cell-based, Staphylococcus aureus; conditions: NA: no activity; for inhibition at 2 µM: Staphylococcus aureus; for Antibiofilm activity (% inhibition) S. aureus: at 2 µM, 2 µM
Protocol: (§2) The biofilm-inhibitory activities of the isolated pure compounds (1–3, 9, and 10) were measured using 96 well flat polystyrene plates against four clinical microbes comprising Gram-positive (Bacillus subtilis and Staphylococcus aureus) and Gram-negative (Escherichia coli and Pseudomonas aeruginosa) pathogenic bacteria, according to Antunes, et al. with some modifications. Briefly, each well was filled with 180 µL lysogeny broth (LB broth) and then inoculated with 10 µL of pathogenic bacteria followed by addition of 10 µL of sample (2 µM) along with control (without test sample). All inoculated plates were then incubated overnight at 37 °C and, after incubation, content in the wells was removed and wells were rinsed with 200 µL of phosphate-buffered saline (PBS) pH 7.2 to eliminate free-floating microbes and left to dry under sterilized laminar flow for 1 h. For staining, 200 µL/well of crystal violet (0.1%, w/v) was added, left for 1 h, and then excessive stain was removed and plates retained for drying. Further, dried plates were rinsed with 95% ethanol and optical density was measured at 570 nm using a Spectrostar Nano Microplate Reader (BMG LABTECH GmbH, Allmendgrun, Germany).

[6] = tested on: B. subtilis; experiment: Antibiofilm activity, crystal violet staining; format: cell-based; conditions: Bacillus subtilis, NA: no activity
Protocol: as §2

[7] = tested on: E. coli; experiment: Antibiofilm activity, crystal violet staining; format: cell-based; conditions: Escherichia coli, read-out: Antibiofilm activity (% inhibition) E. coli
Protocol: as §2

[8] = molecular target: T1, Staphylococcus DNA gyrase-B (Staphylococcus aureus, UniProt P0A0K8); experiment: In vitro enzyme assay, DNA gyrase-B ATPase (Inspiralis kit); format: biochemical
T1 construct: purchased Inspiralis
T1 sequence (P0A0K8 whole entry): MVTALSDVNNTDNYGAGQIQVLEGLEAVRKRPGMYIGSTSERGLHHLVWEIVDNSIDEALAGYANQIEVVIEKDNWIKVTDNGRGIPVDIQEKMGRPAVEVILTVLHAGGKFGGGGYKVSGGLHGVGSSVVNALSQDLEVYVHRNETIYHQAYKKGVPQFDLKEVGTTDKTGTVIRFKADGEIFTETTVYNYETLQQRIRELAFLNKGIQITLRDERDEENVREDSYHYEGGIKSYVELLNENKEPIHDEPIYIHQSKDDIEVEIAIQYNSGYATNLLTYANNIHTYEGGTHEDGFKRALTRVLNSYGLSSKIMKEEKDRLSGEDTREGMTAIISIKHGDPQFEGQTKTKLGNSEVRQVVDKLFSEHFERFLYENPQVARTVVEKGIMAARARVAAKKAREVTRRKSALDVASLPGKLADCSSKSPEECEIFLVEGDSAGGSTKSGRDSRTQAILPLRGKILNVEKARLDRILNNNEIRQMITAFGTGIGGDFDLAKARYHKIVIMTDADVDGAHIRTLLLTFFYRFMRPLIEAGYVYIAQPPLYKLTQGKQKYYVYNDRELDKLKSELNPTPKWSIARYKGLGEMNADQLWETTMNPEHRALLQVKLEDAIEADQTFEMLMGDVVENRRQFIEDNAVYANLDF
T1 sequence (P20831 whole entry partner): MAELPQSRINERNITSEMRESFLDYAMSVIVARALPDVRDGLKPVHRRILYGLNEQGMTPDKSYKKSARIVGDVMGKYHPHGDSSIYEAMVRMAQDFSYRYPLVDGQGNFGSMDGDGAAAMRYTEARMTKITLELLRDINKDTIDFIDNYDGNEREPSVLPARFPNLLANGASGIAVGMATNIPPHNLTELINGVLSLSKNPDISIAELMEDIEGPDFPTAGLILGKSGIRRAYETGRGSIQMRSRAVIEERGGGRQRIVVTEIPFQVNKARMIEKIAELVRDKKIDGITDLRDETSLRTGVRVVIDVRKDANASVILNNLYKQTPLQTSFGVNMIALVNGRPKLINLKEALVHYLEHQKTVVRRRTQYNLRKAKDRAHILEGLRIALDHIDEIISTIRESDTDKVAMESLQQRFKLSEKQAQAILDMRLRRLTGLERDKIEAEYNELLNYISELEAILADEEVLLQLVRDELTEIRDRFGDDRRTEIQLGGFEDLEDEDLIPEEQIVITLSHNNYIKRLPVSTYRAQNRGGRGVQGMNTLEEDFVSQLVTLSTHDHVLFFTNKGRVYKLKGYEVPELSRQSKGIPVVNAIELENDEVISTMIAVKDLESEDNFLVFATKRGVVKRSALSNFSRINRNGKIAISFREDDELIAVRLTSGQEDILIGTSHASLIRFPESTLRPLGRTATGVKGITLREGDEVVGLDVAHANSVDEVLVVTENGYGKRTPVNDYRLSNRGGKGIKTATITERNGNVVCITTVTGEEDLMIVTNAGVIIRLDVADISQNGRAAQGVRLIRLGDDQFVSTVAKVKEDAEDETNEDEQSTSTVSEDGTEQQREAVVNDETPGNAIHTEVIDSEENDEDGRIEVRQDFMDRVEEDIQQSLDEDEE
Protocol: (§3) DNA gyrase (type II topoisomerase) and topoisomerase IV (ParE) add negative supercoils into DNA using ATP hydrolysis as a source of energy. They are considered crucial bacterial enzymes that are absent in eukaryotes. DNA-gyrase-B- and ParE-inhibitory activities were evaluated using the Inspiralis assay kit (Inspiralis®, London, UK) on streptavidin-coated 96 well microtiter plates (Thermo Scientific, Hamburg, Germany), according to the manufacturer’s protocol. The assay detects the ability of the isolated compounds to prevent the ATPase activity of both gyrase-B and ParE subunits. On the other hand, pyruvate kinase (PK) has been discovered to be an important hub protein in the interactome of MRSA [52]. The PK-inhibitory activity of the isolated compounds was assessed according to a previously reported method.

[9] = molecular target: Staphylococcus pyruvate kinase (PK) (Staphylococcus aureus, UniProt Q6GG09); experiment: In vitro enzyme assay, pyruvate kinase inhibition; format: biochemical; conditions: IC50 ± SD
Sequence of Staphylococcus pyruvate kinase (PK) (Q6GG09 whole entry): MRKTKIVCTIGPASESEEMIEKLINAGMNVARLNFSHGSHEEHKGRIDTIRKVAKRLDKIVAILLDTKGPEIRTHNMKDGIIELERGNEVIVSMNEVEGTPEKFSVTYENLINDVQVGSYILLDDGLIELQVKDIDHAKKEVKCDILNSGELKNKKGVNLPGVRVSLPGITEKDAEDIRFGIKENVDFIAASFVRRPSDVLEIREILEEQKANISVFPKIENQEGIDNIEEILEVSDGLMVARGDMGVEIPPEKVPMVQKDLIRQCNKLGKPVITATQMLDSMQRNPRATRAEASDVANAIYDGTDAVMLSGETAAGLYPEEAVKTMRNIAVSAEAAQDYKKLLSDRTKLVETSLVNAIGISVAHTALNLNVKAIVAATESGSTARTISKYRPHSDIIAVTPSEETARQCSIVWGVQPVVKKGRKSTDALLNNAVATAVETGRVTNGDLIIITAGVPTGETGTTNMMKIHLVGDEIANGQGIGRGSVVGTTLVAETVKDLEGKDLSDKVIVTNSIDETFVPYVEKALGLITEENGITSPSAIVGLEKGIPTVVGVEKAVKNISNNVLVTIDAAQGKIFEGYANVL
Protocol: as §3

[10] = tested on: P. aeruginosa; experiment: Antibiofilm activity, crystal violet staining; format: cell-based, Pseudomonas aeruginosa; conditions: for inhibition at 2 µM: Pseudomonas aeruginosa
Protocol: as §2

[11] = tested on: HePG-2; experiment: Cytotoxic activity, MTT assay; format: cell-based; conditions: Homo sapiens, read-out: Cytotoxic activity (IC50) HePG-2
Text: (§4) Doxorubicin was used as a positive control drug.

[12] = in vitro; conditions: human
Protocol: (§5) The cell lines were purchased from ATCC by (VACSERA), Cairo, Egypt. […] The cell lines were used to detect the inhibitory effects of isolated compounds on cell growth. Cell viability was determined via colorimetric assay (MTT), which is based on the transformation of the yellow tetrazolium bromide to a purple formazan by mitochondrial succinate dehydrogenase. […] Subsequently, the cells were mixed with different concentrations of the isolated compounds and incubated for a further 24 h, and then treated with 20 µL of MTT solution at a concentration of 5 mg/mL and incubated for 4 h. […] The relative cell viability as a percentage was calculated as A570 of treated samples/A570 of untreated sample × 100.

[13] = tested on: MCF7; experiment: Cytotoxic activity, MTT assay; conditions: Homo sapiens, MCF7, 24 h, read-out: Cytotoxic activity (IC50) MCF7
Protocol: as §5

[14] = tested on: HCT116; experiment: Cytotoxic activity, MTT assay; conditions: Homo sapiens, HCT-116, 24 h, read-out: Cytotoxic activity (IC50) HCT116
Protocol: as §5

[15] = tested on: four human cancer cell lines; experiment: Cytotoxic activity, MTT assay, all four tested cell lines together; format: cell-based; conditions: range over WI38, HCT116, HePG-2, MCF7, read-out: IC50 values towards the tested cell lines (range)
Text: as §4

[16] = ATCC25922, at 15 µM, NA: no activity, read-out: Growth inhibition % Escherichia coli
[17] = ATCC27853, at 15 µM, read-out: Growth inhibition % Pseudomonas aeruginosa
[18] = ATCC29212, at 15 µM, NA: no activity, read-out: Growth inhibition % Bacillus subtilis
[19] = IC50 ± SD, read-out: IC50 (µM) Gyr-B
[20] = at 2 µM, read-out: Antibiofilm activity (% inhibition) P. aeruginosa

SMILES | inhibition at 15 µM [1, 16] | inhibition at 15 µM [2, 17] | inhibition at 15 µM [3, 18] | inhibition at 15 µM [4] | inhibition at 2 µM [5] | inhibition at 2 µM [6] | inhibition at 2 µM ([7]; at 2 µM) | IC50 [9] | inhibition at 2 µM [10, 20] | IC50 ([11]; HepG2, 24 h) | IC50 at 24 h [12] | IC50 [13] | IC50 [14] | also measured
CNC(C)C1CCC(N)C(OC2C(N)CC(N)C(OC3OCC(C)(O)C(NC)C3O)C2O)O1 (centres unmarked) [Gentamicin, reference compound] | 99 ± 0.6% | 99.7 ± 0.2% | 97 ± 1.6% | 99.1 ± 0.7% |  |  |  |  |  |  |  |  |  | 
COC(=O)c1cccc2nc3c(C(=O)O)cccc3nc12 [Compound 2, phenazine-1,6-dicarboxylic acid mono methyl ester] | 11.2 ± 1.4% | 23.2 ± 2.2% | 32.1 ± 1.3% | 69% | 75% | 18.6 ± 1.6% | 54.1 ± 2.5% | 9.3 ± 0.03 µM | 22.3 ± 1.5% | 76.1 ± 3.9 µM | 76.3 ± 3.9 µM | 82.2 ± 4.4 µM | 60.8 ± 3.5 µM | Antibiofilm activity (% inhibition) S. aureus [5]: 75.10 ± 2.4%; Growth inhibition % Staphylococcus aureus [4]: 68.87 ± 0.8%; IC50 [8, 19]: 21.3 ± 2.36 µM
CC(=O)Nc1ccccc1O [Compound 9, N-(2-hydroxyphenyl)-acetamide] |  | 4.74 ± 1.6% |  |  | 11.5 ± 2.9% | 4.91 ± 1.8% | 34.5 ± 2.6% |  | 7.39 ± 1.9% | 10.2 ± 0.9 µM | 36.5 ± 2.3 µM | 12.7 ± 1.1 µM | 14.6 ± 1.2 µM | IC50 [15]: 10 to 36 µM
COc1cccc2c1C(=O)c1c(O)c3c(c(O)c1C2=O)C[C@@](O)(C(=O)CO)C[C@@H]3O[C@H]1C[C@H](N)[C@H](O)[C@H](C)O1 [Doxorubicin, reference compound] |  |  |  |  |  |  |  |  |  |  |  |  |  | IC50 ([11]; HepG2, MTT, 24 h, table title prints "at 2 µM"): 4.5 ± 0.2 µM
O=C(O)c1cccc2nc3ccccc3nc12 [Compound 3, phenazine-1-carboxylic acid] |  |  |  |  |  |  |  | 22.5 ± 0.04 µM |  | > 100 µM | 51.2 ± 3.2 µM | > 100 µM | 91.3 ± 4.6 µM | inhibition at 2 µM [7]: 54.7 ± 1.4%; inhibition at 15 µM ([1]; ATCC25922, read-out: Growth inhibition % Escherichia coli): 24.3 ± 1.8%; inhibition at 15 µM ([2]; ATCC27853, read-out: Growth inhibition % Pseudomonas aeruginosa, at 15 µM): 94%; Growth inhibition % Pseudomonas aeruginosa [2]: 94.17 ± 2.8%; inhibition at 15 µM ([3]; ATCC29212, read-out: Growth inhibition % Bacillus subtilis): 1.69 ± 1.2%; IC50 [8]: 27.7 ± 1.08 µM; inhibition at 2 µM ([10]; read-out: Antibiofilm activity (% inhibition) P. aeruginosa, at 2 µM): 94%; Antibiofilm activity (% inhibition) P. aeruginosa ([10]; at 2 µM): 93.98 ± 2.2%
COc1ccc(C(N)=O)cc1 [Compound 10, p-anisamide] | 19.3 ± 2.5% | 70% | 42.2 ± 1.9% | 53.2 ± 1.2% | 61.2 ± 3.7% | 20.3 ± 1.1% | 57.5 ± 3.1% |  | 73% | > 100 µM | > 100 µM | > 100 µM | > 100 µM | Growth inhibition % Pseudomonas aeruginosa [2]: 70.23 ± 1.1%; Antibiofilm activity (% inhibition) P. aeruginosa ([10]; at 2 µM): 73.52 ± 1.3%
COC(=O)c1cccc2nc3c(C(=O)OC)cccc3nc12 [Compound 1, dimethyl phenazine-1,6-dicarboxylate] | 9.93 ± 1.3% | 23.4 ± 1.7% | 19.6 ± 1.5% | 47% | 50% | 12.1 ± 3.2% | 36.7 ± 2.9% | 7.2 ± 0.07 µM | 18.4 ± 0.9% | 92.1 ± 4.7 µM | 63.2 ± 3.6 µM | > 100 µM | 85 ± 3.9 µM | Antibiofilm activity (% inhibition) S. aureus [5]: 50.26 ± 0.4%; Growth inhibition % Staphylococcus aureus [4]: 57.19 ± 1.2%; IC50 [8, 19]: 19.2 ± 1.69 µM
